Source: patent US20240174624A1, “CHIRAL N-(1,3,4-OXADIAZOLE-2-YL)PHENYL CARBOXYLIC ACID AMIDES AND THEIR USE AS HERBICIDES” (Bayer Aktiengesellschaft, priority 2021, published 2024)

What was measured:
ZEAMX = assay: Pre-emergence damage to crop plants; type: in vivo, Zea mays; conditions: 80 g a.i./ha, comparative experiment
Excerpt: (§1) Seeds of monocotyledonous and dicotyledonous weed plants and crop plants are laid out in sandy loam soil in wood-fibre pots and covered with soil. The compounds of the invention, formulated in the form of wettable powders (WP) or as emulsion concentrates (EC), are then applied to the surface of the covering soil in the form of an aqueous suspension or emulsion at a water application rate equivalent to 600 to 800 l/ha, with addition of 0.2% wetting agent. After the treatment, the pots are placed in a greenhouse and kept under good growth conditions for the trial plants. The damage to the test plants is scored visually after a test period of 3 weeks by comparison with untreated controls (herbicidal activity in percent (%): 100% activity=the plants have died, 0% activity=like control plants). […] The tables below illustrate, in an illustrative manner, the post-emergence herbicidal action of the compounds of the invention, the herbicidal activity being stated in percent. In the experiments that follow, the herbicidal action of the compounds of the invention and that of the corresponding known racemic compounds closest from WO2012126932 and WO2018202535 were compared under the above-specified conditions by the pre-emergence and post-emergence method. The example numbers given in the tables relate to the compounds disclosed in the respective documents.

BRSNW = assay: Pre-emergence damage to crop plants; type: in vivo, Brassica napus; conditions: 20 g a.i./ha, comparative experiment
Excerpt: as §1

ECHCG = assay: Post-emergence herbicidal action; type: in vivo, Echinochloa crus-galli; conditions: 20 g a.i./ha, comparative experiment
Experimental: (§2) Seeds of monocotyledonous and dicotyledonous weed and crop plants are laid out in sandy loam soil in wood-fibre pots, covered with soil and cultivated in a greenhouse under good growth conditions. 2 to 3 weeks after sowing, the test plants are treated at the one-leaf stage. The compounds of the invention, formulated in the form of wettable powders (WP) or as emulsion concentrates (EC), are then sprayed onto the green parts of the plants in the form of an aqueous suspension or emulsion at a water application rate equating to 600 to 800 l/ha, with addition of 0.2% wetting agent. After the test plants have been left to stand in the greenhouse under optimal growth conditions for about 3 weeks, the action of the preparations is assessed visually in comparison to untreated controls (herbicidal action in percent (%): 100% activity=the plants have died, 0% activity=like control plants). […] The tables below illustrate, in an illustrative manner, the post-emergence herbicidal action of the compounds of the invention, the herbicidal activity being stated in percent. In the experiments that follow, the herbicidal action of the compounds of the invention and that of the corresponding known racemic compounds closest from WO2012126932 and WO2018202535 were compared under the above-specified conditions by the pre-emergence and post-emergence method. The example numbers given in the tables relate to the compounds disclosed in the respective documents.

SETVI = assay: Post-emergence herbicidal action; type: in vivo, Setaria viridis; conditions: 5 g a.i./ha, comparative experiment
Experimental: as §2

VIOTR = assay: Post-emergence herbicidal action; type: in vivo, Viola tricolor; conditions: comparative experiment
Experimental: as §2

TRZAS = assay: Post-emergence damage to crop plants; type: in vivo, Triticum aestiva; conditions: 5 g a.i./ha, comparative experiment
Experimental: as §2

GLXMA = assay: Post-emergence damage to crop plants; type: in vivo, Glycine max; conditions: 5 g a.i./ha, comparative experiment
Experimental: as §2, with “The example numbers given in the tables relate to the compounds disclosed in the respective documents.” left out

Cc1nnc(NC(=O)c2ccc(C(F)F)c([S+](C)[O-])c2Cl)o1 (racemic) [7-48 from WO2018202535, 2-chloro-N-(5-methyl-1,3,4-oxadiazol-2-yl)-3-[(rac)-methylsulfinyl]-4-(difluoromethyl)benzamide, reference compound]
Damage to ZEAMX (ZEAMX): 50%
Damage to BRSNW (BRSNW): 80%
Herbicidal action against ECHCG (ECHCG): 80%
Herbicidal action against SETVI (SETVI): 80%
Herbicidal action against VIOTR (VIOTR; 5 g a.i./ha): 60%
Herbicidal action against VIOTR (VIOTR; 20 g a.i./ha): 80%
Damage to TRZAS (TRZAS): 40%
Damage to GLXMA (GLXMA): 60%
